Source: publication PMC4946967 (ACS chemical biology, 2016)
Residue numbers refer to the chain shown, from its start. Values joined by “and” are separate entries in the source; they are usually repeats but may differ in a detail not shown here. Equal entries are not always repeated. “Also recorded” adds a separate entry of the source. Where two headings read alike, the source gives them in different places.

Tests used:
[1] = target: T1, wt-mouse-(m)RNR-α (Mus musculus, UniProt P07742); type: cell-based; conditions: 3 h treatment; 5, 50, 300 μM ClF, ClA, FlUMP; wt-mRNR-α 3T3 cells
T1 sequence (P07742 1-792): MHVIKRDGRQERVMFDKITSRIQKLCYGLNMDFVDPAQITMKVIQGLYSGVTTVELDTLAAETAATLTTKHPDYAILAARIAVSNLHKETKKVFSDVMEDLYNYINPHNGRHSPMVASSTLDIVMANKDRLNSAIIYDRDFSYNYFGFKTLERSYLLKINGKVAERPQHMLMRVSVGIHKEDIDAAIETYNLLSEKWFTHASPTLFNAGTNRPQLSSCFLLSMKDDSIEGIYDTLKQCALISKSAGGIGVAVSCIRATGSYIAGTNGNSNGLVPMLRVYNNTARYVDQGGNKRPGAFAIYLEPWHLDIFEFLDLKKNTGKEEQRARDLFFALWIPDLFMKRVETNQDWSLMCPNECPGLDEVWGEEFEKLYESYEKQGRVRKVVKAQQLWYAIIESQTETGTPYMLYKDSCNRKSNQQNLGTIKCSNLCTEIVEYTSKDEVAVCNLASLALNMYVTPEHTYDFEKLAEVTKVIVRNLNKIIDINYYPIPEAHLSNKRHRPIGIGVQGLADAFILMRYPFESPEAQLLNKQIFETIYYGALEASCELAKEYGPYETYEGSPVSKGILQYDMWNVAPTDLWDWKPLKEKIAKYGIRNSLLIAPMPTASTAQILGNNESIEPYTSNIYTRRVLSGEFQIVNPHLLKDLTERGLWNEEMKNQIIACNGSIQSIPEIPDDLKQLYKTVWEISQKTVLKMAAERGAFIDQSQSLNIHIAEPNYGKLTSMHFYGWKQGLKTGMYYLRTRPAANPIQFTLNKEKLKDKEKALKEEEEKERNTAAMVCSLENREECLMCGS

[2] = target: T2, mutant (D57N)-mouse(m)RNR-α (Mus musculus, UniProt P07742, D57N); type: cell-based; conditions: 3 h treatment; 5, 50, 300 μM ClF, ClA, FlUMP; D57N-mRNR-α 3T3 cells
T2 sequence (P07742 1-792 D57N): T1 sequence (P07742 1-792) with D57N

[3] = test system: Flp-In 293 T-REx cells expressing RNR-α-Flag; assay: Proliferation inhibition assay
[4] = test system: Flp-In 293 T-REx cells expressing D57N-α-Flag; assay: Proliferation inhibition assay
[5] = target: T3, RNR-α (Homo sapiens, UniProt P23921); assay: Gel filtration analysis of RNR-α oligomeric state; conditions: for oligomeric state by gel filtration of α presaturated with dATP (S and A sites): running buffer without nucleotides
T3 sequence (P23921 1-792): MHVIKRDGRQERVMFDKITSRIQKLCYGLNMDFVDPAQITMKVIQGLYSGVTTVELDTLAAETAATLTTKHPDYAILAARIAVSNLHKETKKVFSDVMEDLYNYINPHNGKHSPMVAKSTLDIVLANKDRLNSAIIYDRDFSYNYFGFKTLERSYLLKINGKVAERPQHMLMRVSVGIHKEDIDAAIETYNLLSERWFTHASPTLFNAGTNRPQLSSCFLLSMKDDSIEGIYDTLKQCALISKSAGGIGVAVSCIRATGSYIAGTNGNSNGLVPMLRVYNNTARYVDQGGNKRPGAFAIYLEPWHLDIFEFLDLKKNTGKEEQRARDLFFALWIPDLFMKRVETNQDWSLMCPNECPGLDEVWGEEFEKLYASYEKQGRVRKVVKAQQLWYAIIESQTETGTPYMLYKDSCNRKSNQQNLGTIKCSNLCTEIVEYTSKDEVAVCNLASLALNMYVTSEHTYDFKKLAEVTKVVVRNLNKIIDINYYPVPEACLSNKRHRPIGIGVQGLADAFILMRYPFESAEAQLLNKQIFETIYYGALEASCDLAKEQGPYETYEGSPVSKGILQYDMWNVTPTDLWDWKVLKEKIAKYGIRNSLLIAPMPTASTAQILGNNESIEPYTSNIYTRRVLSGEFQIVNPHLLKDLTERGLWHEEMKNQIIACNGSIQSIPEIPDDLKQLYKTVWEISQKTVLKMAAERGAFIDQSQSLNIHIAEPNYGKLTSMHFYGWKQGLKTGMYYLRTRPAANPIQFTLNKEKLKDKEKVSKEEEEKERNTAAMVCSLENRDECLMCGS

[6] = target: T4, D57N-human RNR-α mutant (Homo sapiens, UniProt P23921, D57N); assay: Inhibition of D57N RNR-α reductase activity; type: biochemical; conditions: up to at least 10-fold above the Ki for wt
T4 sequence (P23921 1-792 D57N): T3 sequence (P23921 1-792) with D57N

[7] = target: T3, RNR-α; assay: FRET-quenching assay reporting ligand-driven RNR-α oligomerization
[8] = target: T5, wild type RNR-α (Homo sapiens, UniProt P23921); assay: Fluorescence anisotropy displacement of Texas Red-5-dATP from wild type RNR-α; conditions: for further decrease in FA after S site preblocked with saturating dTTP: RNR-α, T*-dATP, saturating ligand then added
T5 sequence (P23921 1-792): T3 sequence (P23921 1-792)

[9] = target: T6, D57N RNR-α (Homo sapiens, UniProt P23921, D57N); assay: Fluorescence anisotropy displacement of Texas Red-5-dATP from D57N RNR-α; type: binding; conditions: D57N RNR-α 6 μM, T*-dATP 1.2 μM
T6 sequence (P23921 1-792 D57N): T3 sequence (P23921 1-792) with D57N

[10] = test system: E. coli RNR; conditions: cited from earlier work
[11] = target: T4, D57N-human RNR-α mutant; conditions: CDP as substrate; cited from earlier work
[12] = target: T7, RNR-β (Homo sapiens, UniProt P31350); assay: RNR β-specific activity assay; type: biochemical
T7 sequence (P31350 1-389): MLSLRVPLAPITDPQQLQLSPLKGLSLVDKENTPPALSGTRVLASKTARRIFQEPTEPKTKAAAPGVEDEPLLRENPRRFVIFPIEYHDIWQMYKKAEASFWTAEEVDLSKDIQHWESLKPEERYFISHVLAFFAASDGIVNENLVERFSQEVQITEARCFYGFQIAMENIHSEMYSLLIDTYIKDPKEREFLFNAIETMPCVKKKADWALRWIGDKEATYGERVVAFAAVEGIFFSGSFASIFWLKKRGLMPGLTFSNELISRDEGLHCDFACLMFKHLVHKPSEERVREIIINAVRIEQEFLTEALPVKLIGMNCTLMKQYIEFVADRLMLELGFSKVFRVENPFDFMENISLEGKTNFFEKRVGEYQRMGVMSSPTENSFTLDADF

## Nc1nc(Cl)nc2c1ncn2[C@H]1C[C@H](O)[C@@H](CO)O1 [ClA, cladribine]
[1]
  RNR inhibition in cells (rate of [5-3H]-dCDP formation in lysate): potent RNR inhibition
[2]
  RNR reductase activity in D57N-α-expressing lines after drug treatment: not suppressed
[3]
  effect of RNR-α overexpression on cytotoxicity relative to noninduced cells: small effect on the EC50
[4]
  protection against cytotoxicity upon tet induction relative to noninduced: > 20 fold

## Nc1nc(Cl)nc2c1ncn2[C@H]1C[C@H](O)[C@@H](COP(=O)(O)OP(=O)(O)O)O1 [ClADP]
[5]
  oligomeric state by gel filtration of α presaturated with dATP (S and A sites): hexameric peak was observed
[6]
  inhibition of D57N-α: did not inhibit; also recorded: failed to inhibit; also recorded: neither of the diphosphates inhibited
[7]
  time to complete oligomerization (time-dependent FRET): less than 5 min
[8]
  further decrease in FA after S site preblocked with saturating dTTP: no statistically significant changes

## Nc1nc(Cl)nc2c1ncn2[C@H]1C[C@H](O)[C@@H](COP(=O)(O)OP(=O)(O)OP(=O)(O)O)O1 [ClATP]
[6]
  inhibition of D57N-α: unresponsive; also recorded: failed to inhibit
[9]
  decrease in FA relative to dTTP/dGTP (fold less): ~ 7 fold
[8]
  further decrease in FA after S site preblocked with saturating dTTP: 20 ± 1% and ~ 20%
[8]; ligand added in place of dTTP/dGTP
  drop in FA on wild type protein compared with D57N: significantly higher drop in FA

## Nc1nc(Cl)nc2c1ncn2[C@@H]1O[C@H](COP(=O)(O)OP(=O)(O)OP(=O)(O)O)[C@@H](O)[C@@H]1F [ClFTP]
[10]
  inhibition of E. coli RNR: failed to inhibit

## Nc1ccn([C@@H]2O[C@H](CO)[C@@H](O)C2(F)F)c(=O)n1 [F2C, gemcitabine]
[2]
  RNR reductase activity in D57N-α-expressing lines after drug treatment: sensitive

## Nc1ccn([C@@H]2O[C@H](COP(=O)(O)OP(=O)(O)O)[C@@H](O)C2(F)F)c(=O)n1 [F2CDP, gemcitabine diphosphate]
[6]
  inhibition of D57N-α: inhibits D57N-α as effectively as the wild type; also recorded: promoted inactivation of D57N-α as well as wt-α

## Nc1nc(F)nc2c1ncn2[C@@H]1O[C@H](COP(=O)(O)OP(=O)(O)O)[C@@H](O)[C@@H]1O [FlUDP]
[5]; 20 μM FlUDP included in running buffer
  oligomeric state of eluted α by gel filtration: exclusively α6
[6]
  inhibition of D57N-α: did not inhibit; also recorded: neither of the diphosphates inhibited
[7]
  time to complete oligomerization (time-dependent FRET): less than 5 min

## Nc1nc(F)nc2c1ncn2[C@@H]1O[C@H](COP(=O)(O)O)[C@@H](O)[C@@H]1O [FlUMP]
[1]
  RNR inhibition in cells (rate of [5-3H]-dCDP formation in lysate): potent RNR inhibition
[2]
  RNR reductase activity in D57N-α-expressing lines after drug treatment: not suppressed
[3]; 48 h drug
  effect of RNR-α overexpression on cytotoxicity relative to noninduced cells: no protection
[4]; 48 h drug
  effect of D57N-α overexpression on cytotoxicity relative to noninduced cells: no protection

## Nc1nc(F)nc2c1ncn2[C@@H]1O[C@H](COP(=O)(O)OP(=O)(O)OP(=O)(O)O)[C@@H](O)[C@@H]1O [FlUTP]
[6]
  inhibition of D57N-α: unresponsive; also recorded: failed to inhibit
[7]
  time to complete oligomerization (time-dependent FRET): less than 5 min

## Nc1ncnc2c1ncn2[C@H]1C[C@H](O)[C@@H](COP(=O)(O)OP(=O)(O)OP(=O)(O)O)O1 [dATP]
[5]
  oligomeric state by gel filtration of α presaturated with dATP (S and A sites): only elutes as lower-order species
[11]
  reduced affinity at the A site of D57N relative to wt: ~ 300 fold

## Cc1cn([C@H]2C[C@H](O)[C@@H](COP(=O)(O)OP(=O)(O)OP(=O)(O)O)O2)c(=O)[nH]c1=O [dTTP]
[9]
  drop in FA: 39 ± 1%
[8]; RNR-α 6 μM, T*-dATP 1.2 μM, saturating ligand
  drop in FA on addition of S-site binder: 49 ± 1% and ~ 50%

## NC(=S)N/N=C/c1ncccc1N [triapine]
[12]
  β-specific activity: suppressed
